{
  "source": "patent US7229987B2",
  "about": "“Multicyclic compounds for use as melanin concentrating hormone antagonists in the treatment of obesity and diabetes” (Eli Lilly and Company, priority 2002, dated 2007)",
  "data": [
    {"smiles": "c1ccc(OCCSCc2nnc(-c3ccc(OCCCN4CCC4)cc3)o2)cc1", "note": "[Example 263, 2-[4-(3-azetidin-1-yl-propoxy)-phenyl]-5-(2-phenoxy-ethylsulfanylmethyl)-[1,3,4]oxadiazole]", "values": [
      {"measurement": "melting point", "result": 60, "unit": "°C"}
    ]},
    {"smiles": "N#CCCCOc1ccc(-c2nnc(CSCCOc3ccccc3)o2)cc1", "note": "[Example 264, 4-{4-[5-(2-phenoxy-ethylsulfanylmethyl)-[1,3,4]oxadiazol-2-yl]-phenoxy}-butyronitrile]", "values": [
      {"measurement": "melting point", "result": "67 to 68", "unit": "°C"}
    ]},
    {"smiles": "c1ccc(OCCSCc2ncc(-c3ccc(OCCN4CCCCCC4)cc3)o2)cc1", "note": "[Example 265, 1-(2-{4-[2-(2-phenoxy-ethylsulfanylmethyl)-oxazol-5-yl]-phenoxy}-ethyl)-azepane]", "values": [
      {"measurement": "melting point", "result": "35 to 38", "unit": "°C"}
    ]},
    {"smiles": "c1ccc(OCCSCc2ncc(-c3ccc(OCCCN4CCCCCC4)cc3)o2)cc1", "note": "[Example 266, 1-(3-{4-[2-(2-phenoxy-ethylsulfanylmethyl)-oxazol-5-yl]-phenoxy}-propyl)-azepane]", "values": [
      {"measurement": "melting point", "result": "32 to 35", "unit": "°C"}
    ]},
    {"smiles": "O=C(O)C(=O)O.c1ccc(OCCSCc2ncc(-c3ccc(OCCCN4CCCCCCC4)cc3)o2)cc1", "note": "[Example 267, 1-(3-{4-[2-(2-phenoxy-ethylsulfanylmethyl)-oxazol-5-yl]-phenoxy}-propyl)-azocane oxalic acid salt]", "values": [
      {"measurement": "melting point", "result": "89 to 94", "unit": "°C"}
    ]},
    {"smiles": "C(=C\\c1ccc(-c2cnc(CSCCOc3ccccc3)o2)cc1)/CN1CCCC1", "note": "[Example 268, 2-(2-phenoxy-ethylsulfanylmethyl)-5-[4-(3-pyrrolidin-1-yl-propenyl)-phenyl]-oxazole]", "values": [
      {"measurement": "melting point", "result": "73 to 75", "unit": "°C"}
    ]},
    {"smiles": "CN(C)CCCOc1ccc(-c2nnc(Cc3ccc(Oc4ccccc4)cc3)o2)cc1.O=C(O)C(=O)O", "note": "[Example 269, Dimethyl-(3-{4-[5-(4-phenoxy-benzyl)-[1,3,4]oxadiazol-2-yl]-phenoxy}-propyl)-amine, oxalic acid salt]", "values": [
      {"measurement": "melting point", "result": "156 to 158", "unit": "°C"}
    ]},
    {"smiles": "c1ccc2oc(Cc3nnc(-c4ccc(OCCCN5CCCCC5)cc4)o3)cc2c1", "note": "[Example 270, 1-{3-[4-(5-Benzofuran-2-yl-methyl-[1,3,4]oxadiazol-2-yl)-phenoxy]-propyl}-piperidine]", "values": [
      {"measurement": "melting point", "result": "76 to 79", "unit": "°C"}
    ]},
    {"smiles": "CN(C)CCCOc1ccc(-c2nnc(CSCCOc3ccc(OC(F)(F)F)cc3)o2)cc1", "note": "[Example 274, [3-(4-{5-[2-(4-trifluoromethoxy-phenoxy)-ethylsulfanylmethyl]-[1,3,4]oxadiazol-2-yl}-phenoxy)-propyl]-dimethyl-amine]", "values": [
      {"measurement": "melting point", "result": "92.5 to 93.5", "unit": "°C"}
    ]},
    {"smiles": "CN(C)CCCOc1ccc(-c2nnc(CSCCOc3ccccc3OC(F)(F)F)o2)cc1", "note": "[Example 275, [3-(4-{5-[2-(2-trifluoromethoxy-phenoxy)-ethylsulfanylmethyl]-[1,3,4]oxadiazol-2-yl}-phenoxy)-propyl]-dimethyl-amine]", "values": [
      {"measurement": "melting point", "result": "55 to 55.5", "unit": "°C"}
    ]},
    {"smiles": "CN(C)CCCOc1ccc(-c2nnc(CSCCOc3cccc(OC(F)(F)F)c3)o2)cc1", "note": "[Example 276, [3-(4-{5-[2-(3-trifluoromethoxy-phenoxy)-ethylsulfanylmethyl]-[1,3,4]oxadiazol-2-yl}-phenoxy)-propyl]-dimethyl-amine]", "values": [
      {"measurement": "melting point", "result": "46 to 46.5", "unit": "°C"}
    ]},
    {"smiles": "COc1ccc(OCCSCc2nnc(-c3ccc(OCCCN(C)C)cc3)o2)cc1", "note": "[Example 277, [3-(4-{5-[2-(4-methoxy-phenoxy)-ethylsulfanylmethyl]-[1,3,4]oxadiazol-2-yl}-phenoxy)-propyl]-dimethyl-amine]", "values": [
      {"measurement": "melting point", "result": "77.5 to 78", "unit": "°C"}
    ]},
    {"smiles": "CN(C)CCCOc1ccc(-c2nnc(CSCCOc3cccc4ccccc34)o2)cc1", "note": "[Example 278, [3-(4-{5-[2-(1-naphthoxy)-ethylsulfanylmethyl]-[1,3,4]oxadiazol-2-yl}-phenoxy)-propyl]-dimethyl-amine]", "values": [
      {"measurement": "melting point", "result": "101 to 102", "unit": "°C"}
    ]},
    {"smiles": "CN(C)CCCOc1ccc(-c2nnc(CSCCOc3ccc4ccccc4c3)o2)cc1", "note": "[Example 279, [3-(4-{5-[2-(2-naphthoxy)-ethylsulfanylmethyl]-[1,3,4]oxadiazol-2-yl}-phenoxy)-propyl]-dimethyl-amine]", "values": [
      {"measurement": "melting point", "result": "97 to 98", "unit": "°C"}
    ]}
  ]
}
